Results from patent US5039679A, “Certain derivatives of 1,4-dihydro-5-isopropoxy-1,6-naphthyridine-3-carboxylic acid, pharmaceutical compositions containing them, and methods of using them” (Goedecke Aktiengesellschaft, priority 1989, dated 1991).
Structures can show the parent of a compound that is named as a salt. Where two headings read alike, the source gives them in different places.

What was measured:
[1] = pharmacological results, blood pressure lowering activity compared with other derivatives; assay type: in vivo; conditions: in comparison with the other derivatives, in words
Excerpt: The pharmacological results are even more marked in the case of the […] which were obtained according to the usual methods of racemate separation.

[2] = Solubility in water and artificial gastric juice (Table 1); assay type: physicochemical
[3] = stress test, 2 weeks, heat or light (stability); assay type: physicochemical
Description: The hydrochloride is unstable even at ambient temperature and a stress test gave, after heating for 2 weeks at 45° C. in the dark, 10% of decomposition products and at ambient temperature in the light 30% of the compound had decomposed after 2 weeks.
In addition, it is also stable under the above-mentioned stress conditions (2 weeks at 45° C. in the dark and 2 weeks at ambient temperature in the light).

[4] = animal experiments, commencement of activity; assay type: in vivo; conditions: in words
[5] = system: Spontaneously Hypertensive Rats; assay: blood pressure lowering after oral administration, Spontaneously Hypertensive Rats (Table 2); assay type: in vivo
Excerpt: |Spontaneously Hypertensive Rats

[6] = Spontaneously Hypertensive Rats, 1 mg/kg PO, n = 6, 1 mg/kg

## CC1=C(C(=O)OCCN(C)Cc2ccccc2)C(c2ccccc2C(F)(F)F)c2c(ccnc2OC(C)C)N1 (racemic) [(±), (±)-1,4-dihydro-5-isopropoxy-2-methyl-4-(2-trifluoromethylphenyl)-1,6-naphthyridine-3-carboxylic acid [2-(N-methyl-N-phenyl-methylamino)-ethyl] ester fumarate]
[1]
  blood pressure lowering activity: especially marked blood pressure lowering activity

## CC1=C(C(=O)OCCN(C)Cc2ccccc2)C(c2ccccc2C(F)(F)F)c2c(ccnc2OC(C)C)N1 (single isomer, unassigned) [Hydrochloride, reference compound]
[2]
  Solubility in Artificial Gastric Juice: 20%
[2]; in words
  solubility in water: good solubility
[2]; water
  solubility in water: 20%
[3]; after heating for 2 weeks at 45° C. in the dark, read-out: decomposition products
  degraded at 336 h: 10%
[3]; ambient temperature in the light, after 2 weeks, read-out: decomposed compound
  degraded at 336 h: 30%
[3]; ambient temperature, in words
  stability: unstable
[4]
  commencement of activity: very rapid commencement of activity
[5]; [6]
  blood pressure lowering action: 17% ± 4.4

## CC1=C(C(=O)OCCN(C)Cc2ccccc2)C(c2ccccc2C(F)(F)F)c2c(ccnc2OC(C)C)N1 (single isomer, unassigned; (+)) [(+)-1,4-dihydro-5-isopropoxy-2-methyl-4-(2-trifluoro-methylphenyl)-1,6-naphthyridine-3-carboxylic acid [2-(N-methyl-N-phenylmethylamino)-ethyl] ester]
[1]
  blood pressure lowering activity: Especially active

## CC1=C(C(=O)OCCN(C)Cc2ccccc2)C(c2ccccc2C(F)(F)F)c2c(ccnc2OC(C)C)N1 (single isomer, unassigned; (+)) [Fumarate, (+)-1,4-dihydro-5-isopropoxy-2-methyl-4-(2-trifluoromethylphenyl)1,6-naphthyridine-3-carboxylic acid [2-(N-methyl-N-phenyl-methylamino)-ethyl] ester fumarate]
[2]
  Solubility in Artificial Gastric Juice: 1.5%
[2]; in words
  solubility in water: considerable lower water solubility
[2]; water
  solubility in water: 0.1%
[3]; 2 weeks at 45° C. in the dark and 2 weeks at ambient temperature in the light, in words
  stability under stress conditions: stable
[5]; [6]
  blood pressure lowering action: 26% ± 1.7
[5]; rats, oral administration, fumarate compared with hydrochloride, in words
  commencement of activity: somewhat later
[5]; rats, oral, fumarate compared with hydrochloride, in words
  blood pressure lowering action: substantially stronger
